Laboratory results reported in US20210255193A1, “LYSINE REACTIVE PROBES AND USES THEREOF” (The Scripps Research Institute, priority 2017, published 2021).

Legend:
Experiment in all cases: competitive isoTOP-ABPP
[1] = target: T1, ABHD10 Abhydrolase domain-containing protein 10, mitochondrial (Homo sapiens, UniProt Q9NUJ1); assay type: binding; design: key to isoTOP-ABPP reactivity ratio at lysine Q9NUJ1_K185: R = MS1 peak area ratio, DMSO (heavy) / compound-treated (light); capped at 20; conditions: 50 uM, in vitro; for isoTOP-ABPP reactivity ratio at lysine Q9NUJ1_K185: 231 sol; for isoTOP-ABPP ratio (R) at liganded lysine Q9NUJ1_K185: sol, 231
T1 construct: endogenous in cells; host or cells: MDA-MB-231 lysate
T1 sequence (Q9NUJ1 53-306): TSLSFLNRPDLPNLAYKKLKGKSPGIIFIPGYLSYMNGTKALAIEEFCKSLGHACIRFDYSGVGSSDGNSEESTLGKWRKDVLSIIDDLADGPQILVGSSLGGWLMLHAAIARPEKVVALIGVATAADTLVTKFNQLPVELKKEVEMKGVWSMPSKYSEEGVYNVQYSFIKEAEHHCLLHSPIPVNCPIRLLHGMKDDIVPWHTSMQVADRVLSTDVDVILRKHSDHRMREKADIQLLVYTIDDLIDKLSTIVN
Experimental: (§1) In vitro covalent fragment treatment for isoTOP-ABPP. All compounds were made up as solutions in DMSO (100×) and were used at a final concentration of 50 μM for activated esters and 100 μM for guanidinylating agents. For each profiling sample, 0.5 ml of lysate was treated with 5 μl of the 100× compound stock solution or 5 μl of DMSO. Samples were treated with activated esters for
(§2) STP-alkyne labeling and click chemistry. For concentration-dependent reactivity measurements by isoTOP-ABPP, 0.5 ml proteome aliquots were treated at ambient temperature with 1 mM STP-alkyne 1 (5 μl of 100 mM stock in DMSO) and 0.1 mM STP alkyne 1 (5 μl of 10 mM stock in DMSO), respectively. For competitive isoTOP-ABPP, after in vitro fragment treatment (detailed above), the samples were labeled for 1 h at ambient temperature with 0.1 mM STP-alkyne 1 (5 μl of 10 mM stock in DMSO). Samples were conjugated by copper-mediated azide-alkyne cycloaddition (CuAAC) to either the light (1 mM STP-alkyne or fragment treated) or heavy (0.1 mM STP-alkyne or DMSO treated) TEV tags (10 μl of 5 mM stocks in DMSO, final concentration=100 μM) using tris(2-carboxyethyl)phosphine hydrochloride
(§3) R value calculation and processing. The ratios of light and heavy MS1 peaks for each unique peptide were quantified with a CIMAGE software using default parameters (3 MS1 acquisitions per peak and signal to noise threshold set to 2.5). For reactivity measurements by isoTOP-ABPP, the R value was calculated from the ratio of MS1 peak areas, comparing the 1 mM STP alkyne sample (light TEV tag) with the 0.1 mM STP alkyne sample (heavy TEV tag). For competitive isoTOP-ABPP, the R value was calculated from the ratio of MS1 peak areas, comparing the DMSO treated sample (heavy TEV tag) with the compound treated sample (light TEV tag). […] Ratios for unique peptide entries are calculated for each experiment; overlapping peptides with the same modified lysine (for example, different charge states, MudPIT chromatographic steps or tryptic termini) are grouped together and the median ratio is reported as the final ratio (R). The peptide ratios reported by CIMAGE were further filtered to ensure the removal or correction of low-quality ratios in each individual data set. The quality filters applied were the following: removal of half tryptic peptides; for ratios with high standard deviations from the median (90% of the median or above) the lowest ratio was taken instead of the median; removal of peptides with R=20 and only a single MS2 event triggered during the elution of the parent ion; manual annotation of all the peptides with ratios of 20, removing any peptides with low quality elution profiles that remained after the previous curation steps (only done for competitive isoTOP-ABPP).
(§4) Cross-data processing for fragment screening. For compound treated samples, biological replicates of the same condition were averaged, if the standard deviation was below 60% of the mean; otherwise, for lysines with at least one R value <4 for a particular compound, the lowest value of the ratio set was taken. For lysines, where all R values for a particular compound were ≥4, the average was reported. For peptides containing several possible modified lysines, the lysine with the highest number of quantification events was used for analysis and the remaining, redundant peptides were reported as alternative modification sites. Peptides included in the aggregate dataset (those used for further bioinformatics and statistical analyses) were required to have been quantified in 2 experiments for competitive isoTOP-ABPP. Lysines were categorized as liganded, if they had at least one ratio R≥4 (hit fragments). For liganded lysines with R=20 for all liganding events, lysines were required to have been quantified with R=20 in two separate experiments and were further required to have been quantified with R<20 in one additional experiment.

[2] = target: T2, KPNA2 Importin subunit alpha-2 (Homo sapiens, UniProt P52292); assay type: binding; conditions: 50 uM, in vitro; for isoTOP-ABPP reactivity ratio at lysine P52292_K459: 231 sol; for isoTOP-ABPP ratio (R) at liganded lysine P52292_K459: sol, 231
T2 construct: isoTOP-ABPP experiments performed in cell lysates (in vitro); endogenous in cells; host or cells: soluble proteome of human cancer cell lines (MDA-MB-231, Ramos, Jurkat)
How it was run: (§5)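 Lysine engagement is reported as R, the MS1 peak-area ratio of heavy-tagged DMSO to light-tagged compound samples. Final fragment concentrations were 50 μM for activated esters and 100 μM for guanidinylating agents; STP-alkyne probe 0.1 mM, 1 h.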

[3] = target: T3, GLUD1 Glutamate dehydrogenase 1, mitochondrial (Homo sapiens, UniProt P00367); assay type: binding; conditions: 50 uM, in vitro; for isoTOP-ABPP reactivity ratio at lysine P00367_K480: 231 sol; for isoTOP-ABPP ratio (R) at liganded lysine P00367_K480: sol, 231
T3 construct: isoTOP-ABPP experiments performed in cell lysates (in vitro); endogenous in cells; host or cells: MDA-MB-231 soluble lysate
How it was run: as §5

[4] = target: T4, HDHD3 Haloacid dehalogenase-like hydrolase domain-containing protein 3 (Homo sapiens, UniProt Q9BSH5); assay type: binding; design: key to isoTOP-ABPP reactivity ratio at lysine Q9BSH5_K15: R = MS1 peak area ratio, DMSO (heavy) / compound-treated (light); conditions: 50 uM, in vitro; for isoTOP-ABPP reactivity ratio at lysine Q9BSH5_K15: 231 sol; for isoTOP-ABPP ratio (R) at liganded lysine Q9BSH5_K15: sol, 231
T4 construct: isoTOP-ABPP experiments performed in cell lysates (in vitro); endogenous in cells; host or cells: soluble proteome of human cancer cell lines (MDA-MB-231; Ramos and Jurkat also prepared)
T4 sequence (Q9BSH5 1-251): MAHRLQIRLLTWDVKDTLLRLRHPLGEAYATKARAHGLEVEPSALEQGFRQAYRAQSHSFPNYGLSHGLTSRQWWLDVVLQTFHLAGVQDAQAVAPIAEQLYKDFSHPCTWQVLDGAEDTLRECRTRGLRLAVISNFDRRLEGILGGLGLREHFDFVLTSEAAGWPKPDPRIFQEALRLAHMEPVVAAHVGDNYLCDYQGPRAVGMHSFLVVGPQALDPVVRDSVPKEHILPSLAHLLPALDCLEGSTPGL
Experimental: as §1, §2, §3, §4

[5] = target: T5, SRP54 Signal recognition particle 54 kDa protein (Homo sapiens, UniProt P61011); assay type: binding; design: key to isoTOP-ABPP reactivity ratio at lysine P61011_K81: R = MS1 peak area ratio, DMSO (heavy) / compound-treated (light); capped at 20; conditions: 50 uM, in vitro; for isoTOP-ABPP reactivity ratio at lysine P61011_K81: 231 sol; for isoTOP-ABPP ratio (R) at liganded lysine P61011_K81: sol, 231
T5 construct: isoTOP-ABPP experiments performed in cell lysates (in vitro); endogenous in cells; host or cells: soluble proteome of human cancer cell lines (MDA-MB-231, Ramos, Jurkat)
Experimental: as §1, §2, §3, §4

[6] = target: T6, ABCE1 ATP-binding cassette sub-family E member 1 (Homo sapiens, UniProt P61221); conditions: 50 uM, in vitro; for isoTOP-ABPP reactivity ratio at lysine P61221_K191 / isoTOP-ABPP reactivity ratio at lysine P61221_K478: 231 sol; for isoTOP-ABPP ratio (R) at liganded lysine P61221_K191 / isoTOP-ABPP ratio (R) at liganded lysine P61221_K478: sol, 231
T6 construct: isoTOP-ABPP experiments performed in cell lysates (in vitro); endogenous in cells; host or cells: soluble proteome of human cancer cell lines (MDA-MB-231, Ramos, Jurkat)
Experimental: as §1, §2, §3, §4

[7] = target: T7, MAP1LC3B Microtubule-associated proteins 1A/1B light chain (Homo sapiens, UniProt Q9GZQ8); assay type: binding; design: key to isoTOP-ABPP reactivity ratio at lysine Q9GZQ8_K51: R = MS1 peak area ratio, DMSO (heavy) / compound-treated (light); conditions: 50 uM, in vitro; for isoTOP-ABPP reactivity ratio at lysine Q9GZQ8_K51: 231 sol; for isoTOP-ABPP ratio (R) at liganded lysine Q9GZQ8_K51: sol, 231
T7 construct: isoTOP-ABPP experiments performed in cell lysates (in vitro); endogenous in cells; host or cells: soluble proteome of human cancer cell lines (MDA-MB-231; Ramos and Jurkat also prepared)
Experimental: as §1, §2, §3, §4

T3 sequence (P00367 54-558): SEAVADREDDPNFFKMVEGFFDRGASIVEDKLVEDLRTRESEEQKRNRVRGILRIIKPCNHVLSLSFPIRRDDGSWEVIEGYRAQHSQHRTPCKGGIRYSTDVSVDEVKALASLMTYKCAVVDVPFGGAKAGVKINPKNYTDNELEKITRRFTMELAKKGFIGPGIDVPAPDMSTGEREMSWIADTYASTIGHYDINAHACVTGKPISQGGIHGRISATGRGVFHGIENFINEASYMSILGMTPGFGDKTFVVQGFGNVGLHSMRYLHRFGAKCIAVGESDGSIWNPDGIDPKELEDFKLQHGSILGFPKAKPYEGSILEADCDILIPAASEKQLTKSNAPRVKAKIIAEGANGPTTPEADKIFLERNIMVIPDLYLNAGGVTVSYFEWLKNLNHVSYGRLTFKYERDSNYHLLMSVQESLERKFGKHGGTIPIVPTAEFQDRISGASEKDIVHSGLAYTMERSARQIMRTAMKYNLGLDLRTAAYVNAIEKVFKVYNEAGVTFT
T5 sequence (P61011 whole entry): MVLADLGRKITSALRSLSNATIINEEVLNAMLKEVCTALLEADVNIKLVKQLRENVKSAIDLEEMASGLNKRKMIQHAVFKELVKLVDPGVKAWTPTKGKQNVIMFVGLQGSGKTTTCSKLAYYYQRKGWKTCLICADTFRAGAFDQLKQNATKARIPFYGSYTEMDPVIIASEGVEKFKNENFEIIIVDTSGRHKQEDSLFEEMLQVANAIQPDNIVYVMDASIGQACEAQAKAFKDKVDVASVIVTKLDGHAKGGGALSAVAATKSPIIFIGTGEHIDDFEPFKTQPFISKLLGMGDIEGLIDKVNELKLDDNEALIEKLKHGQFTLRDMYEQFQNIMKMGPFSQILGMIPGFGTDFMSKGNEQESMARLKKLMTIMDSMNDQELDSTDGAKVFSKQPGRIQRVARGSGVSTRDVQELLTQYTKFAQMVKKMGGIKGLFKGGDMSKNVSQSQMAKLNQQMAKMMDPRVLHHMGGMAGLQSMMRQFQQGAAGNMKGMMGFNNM

| Structure (SMILES) | isoTOP-ABPP reactivity ratio at lysine Q9NUJ1_K185 [1] | isoTOP-ABPP reactivity ratio at lysine P52292_K459 [2] | isoTOP-ABPP reactivity ratio at lysine P00367_K480 [3] | isoTOP-ABPP reactivity ratio at lysine Q9BSH5_K15 [4] | isoTOP-ABPP reactivity ratio at lysine P61011_K81 [5] | isoTOP-ABPP reactivity ratio at lysine P61221_K191 [6] | isoTOP-ABPP reactivity ratio at lysine P61221_K478 [6] | isoTOP-ABPP reactivity ratio at lysine Q9GZQ8_K51 [7] | isoTOP-ABPP ratio (R) at liganded lysine Q9NUJ1_K185 [1] | isoTOP-ABPP ratio (R) at liganded lysine P52292_K459 [2] | isoTOP-ABPP ratio (R) at liganded lysine P00367_K480 [3] | isoTOP-ABPP ratio (R) at liganded lysine Q9BSH5_K15 [4] | isoTOP-ABPP ratio (R) at liganded lysine P61011_K81 [5] | isoTOP-ABPP ratio (R) at liganded lysine P61221_K191 [6] | isoTOP-ABPP ratio (R) at liganded lysine P61221_K478 [6] | isoTOP-ABPP ratio (R) at liganded lysine Q9GZQ8_K51 [7] |
| --- | --- | --- | --- | --- | --- | --- | --- | --- | --- | --- | --- | --- | --- | --- | --- | --- |
| O=C(Oc1ccc([N+](=O)[O-])cc1[N+](=O)[O-])C(c1ccccc1)c1ccccc1 [fragment 30, 2,4-Dinitrophenyl 2,2-diphenylacetate] | 2.4 | 4.3 | 1.8 | 20.0 | 20.0 | 1.1 | 1.1 | 1.2 | – | – | – | – | – | – | – | – |
| O=C(Oc1ccc([N+](=O)[O-])cc1[N+](=O)[O-])c1cc(C(F)(F)F)cc(C(F)(F)F)c1 [fragment 31, 2,4-Dinitrophenyl 3,5-bis(trifluoromethyl)benzoate] | 4.4 | 1.3 | 1.3 | 4.6 | 0.9 | 1.4 | 1.1 | 1.1 | – | – | – | – | – | – | – | – |
| Cn1cc(CC(=O)Oc2ccc([N+](=O)[O-])cc2[N+](=O)[O-])c2ccccc21 [fragment 32, 2,4-Dinitrophenyl 2-(1-methyl-1H-indol-3-yl)acetate] | 1.4 | 1.8 | 4.4 | 6.7 | 20.0 | 1.3 | 1.2 | 0.9 | – | – | – | – | – | – | – | – |
| COc1cc(CCC(=O)Oc2ccc([N+](=O)[O-])cc2[N+](=O)[O-])cc(OC)c1OC [fragment 33, 2,4-Dinitrophenyl 3-(3,4,5-trimethoxyphenyl)propanoate] | 2.1 | 1.8 | 6.2 | 1.5 | 1.3 | 1.1 | 1.2 | 0.8 | – | – | – | – | – | – | – | – |
| O=C(Oc1ccc([N+](=O)[O-])cc1[N+](=O)[O-])C1CCN(C(=O)OCc2ccccc2)CC1 [fragment 34, 1-Benzyl 4-(2,4-dinitrophenyl) piperidine-1,4-dicarboxylate] | – | – | – | – | – | – | – | – | 1.5 | 1.0 | 1.3 | 4.1 | 0.8 | 1.0 | 1.2 | 1.0 |
| O=C(Oc1ccc([N+](=O)[O-])cc1[N+](=O)[O-])c1ccc2ccccc2n1 [fragment 35, 2,4-Dinitrophenyl quinoline-2-carboxylate] | – | – | – | – | – | – | – | – | 1.3 | 1.3 | 1.8 | 7.0 | 0.8 | 1.1 | 1.1 | 1.0 |
| O=C(CCc1coc2cc(F)ccc2c1=O)Oc1ccc([N+](=O)[O-])cc1[N+](=O)[O-] [fragment 36, 2,4-Dinitrophenyl 3-(7-fluoro-4-oxo-4H-chromen-3-yl)propanoate] | – | – | – | – | – | – | – | – | 1.4 | 9.2 | 3.2 | 10.4 | 1.3 | 1.0 | 1.1 | 0.8 |
| O=C(Oc1ccc([N+](=O)[O-])cc1[N+](=O)[O-])c1ccc(-c2ccccc2)cc1 [fragment 37, 2,4-Dinitrophenyl [1,1′-biphenyl]-4-carboxylate] | – | – | – | – | – | – | – | – | 1.2 | 0.9 | 1.1 | 4.3 | 0.9 | 0.9 | 1.0 | 0.9 |
